Series [1] is described as follows: Pharmacokinetics after intravenous and oral administration in rats. The series is classed as in vivo. As to conditions: for Clearance (CL) after iv dosing / AUC(0-t) / half-life / Vd: dose 1 mg/kg (Ex. 27: 0.72 mg/kg), iv dosing; for F: oral bioavailability; for AUC(0-t) / half-life / Vd: rat, plasma; for Vd: read-out: Vss. Here is the method:
The LC/MS/MS system used in the analysis consists of an Agilent 1200 Series vacuum degasser, binary pump, well-plate autosampler, thermostatted column compartment, the Agilent G6430 Triple Quadrupole Mass Spectrometer with an electrosprayionization (ESI) source. Quantitative analysis was carried out using MRM mode. The parameters for MRM transitions are in the Table A.
An Agilent XDB-C18, 2.1×30 mm, 3.5 μM column was used for the analysis. 5 μL of the samples were injected. Analysis condition: The mobile phase was 0.1% formic acid in water (A) and 0.1% formic acid in methanol (B). The flow rate was 0.4 mL/min. And the gradient of Mobile phase was in the Table B.
Alternatively, an Agilent 6330 series LC/MS/MS spectrometer equipped with G1312A binary pumps, a G1367A autosampler and a G1314C UV detector were used in the analysis. An ESI source was used on the LC/MS/MS spectrometer. The analysis was done in positive ion mode as appropriate and the MRM transition for each analyte was optimized using standard solution. A Capcell MP-C18 100×4.6 mm I.D., […] column (Phenomenex, Torrance, Calif., USA) was used during the analysis. The mobile phase was 5 mM ammonia acetate, 0.1% MeOH in water (A): 5 mM ammonia acetate, 0.1% MeOH in acetonitrile (B) (70:30, v/v). The flow rate was 0.6 mL/min. Column was maintained at ambient temperature. 20 μL of the samples were injected.
The compounds disclosed herein are assessed in pharmacokinetic studies in mice, rats, dogs or monkeys. The compounds are administered as a water solution, 2% HPMC+1% TWEEN®80 in water solution, 5% DMSO+5% solution in saline, 4% MC suspension or capsule. For the intravenous administration, the animals are generally given at 1 or 2 mg/kg dose. For the oral (p.o.) dosing, mice and rats are generally given 5 or 10 mg/kg dose, and dogs and monkeys are generally given 10 mg/kg dose. The blood samples (0.3 mL) are drawn at 0.25, 0.5, 1.0, 2.0, 3.0, 4.0, 6.0, 8.0, 12 and 24 h time points or 0.083, 0.25, 0.5, 1.0, 2.0, 4.0, 6.0, 8.0 and 24 h time points and centrifuged at 3,000 or 4000 rpm for 2 to 10 min. The plasma solutions are collected, and stored at −20° C. or −70° C. until analyzed by LC/MS/MS as described above.

Series [2] can be described thus: Compound stability in rat liver microsomes. As to conditions: for half-life at 5 μM: compound 5 μM, NADPH 1.0 mM, 37° C.; for CLint scaled at 5 μM: in vivo CLint extrapolated. Type of series: in vitro ADME. The protocol:
(§1) Human or rat liver microsomes incubations were conducted in duplicate in polypropylene tubes. The typical incubation mixtures consisted of human or rat liver microsomes (0.5 mg protein/mL), compounds of interest (5 μM) and NADPH (1.0 mM) in a total volume of 200 μL potassium phosphate buffer (PBS, 100 mM, pH 7.4). Compounds were dissolved in DMSO and diluted with PBS such that the final concentration of DMSO was 0.05%. The enzymatic reactions were commenced with the addition of protein after a 3-min preincubation and incubated in a water bath open to the air at 37° C. Reactions were terminated at various time points (0, 5, 10, 15, 30, 60 min) by adding equal volume of ice-cold acetonitrile. The samples were stored at −80° C. until LC/MS/MS assays.
(§2) The concentrations of compounds in the incubation mixtures of human or rat liver microsomes were determined by a LC/MS/MS method. The ranges of the linearity in the concentration range were determined for each tested compounds.
(§3) A parallel incubation was performed using denatured microsomes as the negative control, and reactions were terminated at various time points (0, 15, 60 min) after incubation at 37° C.
(§4) Dextromethorphan (70 μM) was selected as the positive control, and reactions were terminated at various time points (0, 5, 10, 15, 30, 60 min) after incubation at 37° C. Both positive and negative control samples were included in each assay to ensure the integrity of the microsomal incubation system.
(§5) The concentrations of compounds in human or rat liver microsome incubations were plotted as a percentage of the relevant zero time point control for each reaction. The in vivo CLint were extrapolated (ref.: Naritomi, Y.; Terashita, S.; Kimura, S.; Suzuki, A.; Kagayama, A.; and Sugiyama, Y.; Prediction of human hepatic clearance from in vivo animal experiments and in vitro metabolic studies with liver microsomes from animals and humans. Drug Metab. Dispos., 2001, 29: 1316-1324).

Series [3] is described as follows: Compound stability in human liver microsomes. Type of series: in vitro ADME. Conditions: for half-life at 5 μM: compound 5 μM, NADPH 1.0 mM, 37° C.; for CLint scaled at 5 μM: in vivo CLint extrapolated. Here is the method:
as §1, §2, §3, §4, §5

The target of series [4] is JAK1 (h) (Homo sapiens (Human), UniProt P23458). The series can be described thus: JAK1 kinase assay (33P-ATP filter binding, Millipore). The series is classed as biochemical. The protocol: Kinase assays can be performed by measurement of incorporation of γ-^33P ATP into immobilized myelin basic protein (MBP). High binding white 384 well plates (Greiner) are coated with MBP (Sigma #M−1891) by incubation of 60 μL/well of 20 μg/mL MBP in Tris-buffered saline (TBS; 50 mM Tris pH 8.0, 138 mM NaCl, 2.7 mM KCl) for 24 h at 4° C. Plates are washed 3× with 100 μL TBS. Kinase reactions are carried out in a total volume of 34 μL in kinase buffer (5 mM Hepes pH 7.6, 15 mM NaCl, 0.01% bovine gamma globulin (Sigma #I-5506), 10 mM MgCl2, 1 mM DTT, 0.02% TritonX-100). Compound dilutions are performed in DMSO and added to assay wells to a final DMSO concentration of 1%. Each data point is measured in duplicate, and at least two duplicate assays are performed for each individual compound determination. Enzyme is added to final concentrations of 10 nM or 20 nM, for example. A mixture of unlabeled ATP and γ-^33P ATP is added to start the reaction (2×10^6 cpm of γ-^33P ATP per well (3000 Ci/mmole) and 10 μM unlabeled ATP, typically. The reactions are carried out for 1 h at room temperature with shaking. Plates are washed 7× with TBS, followed by the addition of 50 μL/well scintillation fluid (Wallac). Plates are read using a Wallac Trilux counter. This is only one format of such assays; various other formats are possible, as known to one skilled in the art.
JAK1 (h), sequence (P23458 whole entry): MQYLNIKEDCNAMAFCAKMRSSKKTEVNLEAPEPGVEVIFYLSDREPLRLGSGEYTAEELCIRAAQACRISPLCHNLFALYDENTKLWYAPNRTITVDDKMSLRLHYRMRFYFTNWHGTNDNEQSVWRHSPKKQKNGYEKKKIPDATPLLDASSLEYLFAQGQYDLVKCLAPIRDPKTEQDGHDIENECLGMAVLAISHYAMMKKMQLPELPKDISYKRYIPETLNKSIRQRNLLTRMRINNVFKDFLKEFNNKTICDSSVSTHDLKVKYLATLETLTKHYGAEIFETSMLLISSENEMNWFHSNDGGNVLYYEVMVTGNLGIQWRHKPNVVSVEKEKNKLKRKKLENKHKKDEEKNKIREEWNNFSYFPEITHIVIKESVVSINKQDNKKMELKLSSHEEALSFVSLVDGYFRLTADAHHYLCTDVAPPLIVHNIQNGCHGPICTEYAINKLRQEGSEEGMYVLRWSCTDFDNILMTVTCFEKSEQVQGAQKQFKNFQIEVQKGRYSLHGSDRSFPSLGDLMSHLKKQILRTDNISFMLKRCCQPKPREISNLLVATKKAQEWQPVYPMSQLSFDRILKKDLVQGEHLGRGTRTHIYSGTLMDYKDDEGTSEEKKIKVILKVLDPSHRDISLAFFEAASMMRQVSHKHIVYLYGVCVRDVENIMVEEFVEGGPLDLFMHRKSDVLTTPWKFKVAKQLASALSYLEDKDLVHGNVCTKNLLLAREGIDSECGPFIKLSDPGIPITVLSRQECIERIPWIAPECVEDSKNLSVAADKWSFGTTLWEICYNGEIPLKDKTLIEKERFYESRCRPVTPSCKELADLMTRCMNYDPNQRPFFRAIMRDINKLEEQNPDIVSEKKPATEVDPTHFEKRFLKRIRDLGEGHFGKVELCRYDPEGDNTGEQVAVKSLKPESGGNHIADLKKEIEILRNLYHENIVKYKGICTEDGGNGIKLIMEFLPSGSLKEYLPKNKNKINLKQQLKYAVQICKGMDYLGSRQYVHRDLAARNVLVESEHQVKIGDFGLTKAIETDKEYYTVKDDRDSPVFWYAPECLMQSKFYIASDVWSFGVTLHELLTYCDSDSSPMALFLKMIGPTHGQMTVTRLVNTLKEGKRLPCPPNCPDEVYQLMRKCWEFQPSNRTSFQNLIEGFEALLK
The above assay procedure can be used to determine the IC50 for inhibition and/or the inhibition constant, Ki. The IC50 is defined as the concentration of compound required to reduce the enzyme activity by 50% under the condition of the assay. The IC50 value is estimated by preparing a 10 point curve using a 1/2 log dilution series (for example, a typical curve may be prepared using the following compound concentrations: 3 μM, 1 μM, 0.3 μM, 0.1 μM, 0.03 μM, 0.01 μM, 0.003 μM, 0.001 μM, 0.0003 μM and 0 μM).
The kinase assays described herein were performed at Millipore UK Ltd, Dundee Technology Park, Dundee DD2 1SW, UK.

The mark [5] stands for this setting: pH 7.4, Rat liver microsomes 0.5 mg protein/mL.
Setting [6] is: pH 7.4, Human liver microsomes 0.5 mg protein/mL.

The values that follow come from patent US9403801B2 (Calitor Sciences, LLC, priority 2014, dated 2016).

Structures are written as SMILES. pIC50: −log10 of the molar value.

As usually defined, the AUC(0-t) is the area under the concentration-time curve up to a stated or last time point. One may read the half-life as the time in which the quantity being followed falls by half. For orientation: CLint scaled means a measure of how fast metabolising enzymes remove a compound, apart from limits set by blood flow. As a reminder, the pIC50 is the IC50 on a negative log10 scale, so that one unit is a factor of ten. Lower therefore signals a large IC50.

For `N#CCC(=O)N1CCC2(CCC(Nc3nc(Nc4cnn(CC5CC5)c4)ncc3Cl)CC2)CC1` [Ex. 48, 3-(9-((5-chloro-2-((1-(cyclopropylmethyl)-1H-pyrazol-4-yl)amino)pyrimidin-4-yl)amino)-3-azaspiro[5.5]undecan-3-yl)-3-oxopropanenitrile], in series [1], the “Clearance (CL) after iv dosing” value was determined as 66.2 mL/min/kg, the F was 13.6%, the AUC(0-t) was determined as 252 ng·h/mL and the half-life was 43.8 min. Also, the Vd in series [1] was found to be 3.41 L/kg. In series [2] (rat, liver microsomes, pH 7.4, Rat liver microsomes 0.5 mg protein/mL), this compound yielded a half-life at 5 μM of 24.3 min. Besides, the CLint scaled at 5 μM in series [2] (rat, liver microsomes, pH 7.4, Rat liver microsomes) was 102 mL/min/kg. Also, the half-life at 5 μM in series [3] (human, liver microsomes, pH 7.4, Human liver microsomes 0.5 mg protein/mL) stood at 47.6 min. Further, the CLint scaled at 5 μM in series [3] (human, liver microsomes, pH 7.4, Human liver microsomes) was 36.5 mL/min/kg. This compound also had a pIC50 in series [4] of 9.40.

For `Cc1c(Nc2ncc(Cl)c(NC3CC4CN(C(=O)CC#N)CC4C3)n2)cnn1C` (stereo not drawn) [Ex. 66, 3-(5-((5-chloro-2-((1,5-dimethyl-1H-pyrazol-4-yl)amino)pyrimidin-4-yl)amino)hexahydrocyclopenta[c]pyrrol-2(1H)-yl)-3-oxopropanenitrile], in series [1], the “Clearance (CL) after iv dosing” value amounted to 81.8 mL/min/kg, the F is listed as 21.0%, the AUC(0-t) stood at 201 ng·h/mL and the half-life was 16.2 min. Moreover, the Vd in series [1] was 2.28 L/kg. The compound also showed a half-life at 5 μM in series [2] (setting [5]) of 21.2 min. The CLint scaled at 5 μM in series [2] (pH 7.4, Rat liver microsomes) is 117 mL/min/kg. Further, in series [3] (setting [6]), the half-life at 5 μM was 81.5 min. Besides, the CLint scaled at 5 μM in series [3] (pH 7.4, Human liver microsomes) was 21.3 mL/min/kg. The pIC50 in series [4] was 8.15.

Regarding `N#CCC(=O)N1CC2CC(Nc3nc(Nc4cnn(CC5CC5)c4)ncc3Cl)CC2C1` (stereo not drawn) [Ex. 46, 3-(5-((5-chloro-2-((1-(cyclopropylmethyl)-1H-pyrazol-4-yl)amino)pyrimidin-4-yl)amino)hexahydrocyclopenta[c]pyrrol-2(1H)-yl)-3-oxopropanenitrile], in series [1], the “Clearance (CL) after iv dosing” value was 68.8 mL/min/kg, the F is listed as 26.0%, the AUC(0-t) worked out at 244 ng·h/mL and the half-life was 28.8 min. Moreover, the Vd in series [1] is 1.53 L/kg. The compound also yielded a half-life at 5 μM in series [2] (setting [5]) of 20.6 min. In addition, the CLint scaled at 5 μM in series [2] (pH 7.4, Rat liver microsomes) is 121 mL/min/kg. Besides, in series [3] (setting [6]), the half-life at 5 μM was 39.3 min. In addition, the CLint scaled at 5 μM in series [3] (pH 7.4, Human liver microsomes) is 44.2 mL/min/kg. The pIC50 in series [4] was 9.30.

`Cc1nn(C)cc1Nc1ncc(Cl)c(NC2CC3CN(C(=O)CC#N)CC3C2)n1` (stereo not drawn) [Ex. 64, 3-(5-((5-chloro-2-((1,3-dimethyl-1H-pyrazol-4-yl)amino)pyrimidin-4-yl)amino)hexahydrocyclopenta[c]pyrrol-2(1H)-yl)-3-oxopropanenitrile]: in series [1], the “Clearance (CL) after iv dosing” value is 53.2 mL/min/kg, the F turned out to be 48.1%, the AUC(0-t) was determined as 315 ng·h/mL and the half-life was 24.6 min. In series [1], the Vd was determined as 1.31 L/kg. This compound also displayed a half-life at 5 μM in series [2] (setting [5]) of 33.6 min. Further, in series [2] (pH 7.4, Rat liver microsomes), the CLint scaled at 5 μM was 74 mL/min/kg. Also, the half-life at 5 μM in series [3] (setting [6]) amounted to 62.8 min. Also, the CLint scaled at 5 μM in series [3] (pH 7.4, Human liver microsomes) was 27.7 mL/min/kg. This compound also showed a pIC50 in series [4] of 8.70.

Consider `Cn1cc(Nc2ncc(Cl)c(NC3CN(C(=O)CC#N)CC34CCCC4)n2)cn1` (stereo not drawn) [Ex. 18, 3-(4-((5-chloro-2-((1-methyl-1H-pyrazol-4-yl)amino)pyrimidin-4-yl)amino)-2-azaspiro[4.4]nonan-2-yl)-3-oxopropanenitrile], for which, in series [1], the “Clearance (CL) after iv dosing” value came to 45.8 mL/min/kg, the F worked out at 55.9%, the AUC(0-t) stood at 731 ng·h/mL and the half-life was 136 min. In series [1], the Vd is 4.32 L/kg. The same compound gave a pIC50 in series [4] of 8.15.

As for `Cc1cnc(Nc2cnn(C)c2)nc1NC1CC2CN(C(=O)CC#N)CC2C1` (stereo not drawn) [Ex. 60, 3-(5-((5-methyl-2-((1-methyl-1H-pyrazol-4-yl)amino)pyrimidin-4-yl)amino)hexahydrocyclopenta[c]pyrrol-2(1H)-yl)-3-oxopropanenitrile], the half-life at 5 μM in series [2] (setting [5]) worked out at 240 min; in series [3] (setting [6]), 244 min. Further, the CLint scaled at 5 μM in series [2] (pH 7.4, Rat liver microsomes) is 10.3 mL/min/kg; in series [3] (pH 7.4, Human liver microsomes) it was 7.11 mL/min/kg. In series [4], this compound had a pIC50 of 8.30.

For the compound `Cc1cnc(Nc2cnn(C)c2)nc1NC1CC2CN(c3ccc(C#N)cn3)CC2C1` (stereo not drawn) [Ex. 59, 6-(5-((5-methyl-2-((1-methyl-1H-pyrazol-4-yl)amino)pyrimidin-4-yl)amino)hexahydrocyclopenta[c]pyrrol-2(1H)-yl)nicotinonitrile], in series [1], the “Clearance (CL) after iv dosing” value is 26.8 mL/min/kg, the F came to 36.9%, the AUC(0-t) stood at 648 ng·h/mL and the half-life was 58.2 min. Moreover, the Vd in series [1] is 1.76 L/kg. Also, in series [4], the pIC50 was 9.00.

In the case of `Cc1cnc(Nc2cnn(C)c2)nc1NC1CN(C(=O)CC#N)CC12CCCC2` (stereo not drawn) [Ex. 8, 3-(4-((5-methyl-2-((1-methyl-1H-pyrazol-4-yl)amino)pyrimidin-4-yl)amino)-2-azaspiro[4.4]nonan-2-yl)-3-oxopropanenitrile], in series [1], the “Clearance (CL) after iv dosing” value was 61.7 mL/min/kg, the F was 17.5%, the AUC(0-t) amounted to 272 ng·h/mL and the half-life is 52.8 min. Also, the Vd in series [1] is 2.85 L/kg. In series [4], this compound had a pIC50 of 7.96.
